These results are taken from publication PMC7083565, “In vitro metabolism, reaction phenotyping, enzyme kinetics, CYP inhibition and induction potential of ataluren” (Pharmacology Research & Perspectives, 2020).

In general, IC50 refers to the concentration needed to halve the response being measured. In general, Ki refers to the equilibrium dissociation constant of an inhibitor or competing ligand from its target. Low readings indicate tighter binding, high ones weaker binding.

Holding throughout (assay type): in vitro ADME
The test system of data set [1] is CYP2B6. The experiment in a line: CYP induction in primary human hepatocytes: CYP2B6. The settings on record: Bupropion-hydroxylase, 48 hours, n=3. As to the method:
Human hepatocytes isolated from three Caucasian males were transferred to 48‐well collagen‐coated plates at 0.14 × 10^6 cells/well in planting media for attachment. After attachment, planting media was replaced with sandwich media and the cells were incubated until clusters were established. […] The incubation solutions were aspirated and replaced with freshly prepared incubation solutions containing ataluren for an additional 24 hours. […] The incubation solutions were then aspirated and 150 µL of K‐H buffer containing CYP substrates were added. The hepatocytes were incubated for 30 minutes for CYP2C8 (10 µmol/L amodiaquine), 1 hour for CYP3A4 (125 µmol/L testosterone), and 4 hours for CYPs 1A2 (100 µmol/L phenacetin), 2A6 (100 µmol/L coumarin), 2B6 (150 µmol/L bupropion), 2C9 (50 µmol/L tolbutamide), 2C19 (100 µmol/L S‐mephenytoin), and 2E1 (300 µmol/L chlorzoxazone) activity assays. The reactions were stopped by the addition of 0.15 mL of ice‐cold methanol except that coumarin‐treated cells were incubated with β‐glucuronidase and aryl sulfatase for additional 1 hour to free 7‐hydroxycoumarin before the addition of 0.2 mL of ice‐cold methanol. Metabolite formation in incubations with test compounds and control inhibitors was assessed with validated LC‐MS/MS methods for each of the reaction products as described in Table S2. Enzymatic activity for each CYP was calculated using the absolute amount of metabolite formed (pmol) divided by hepatocytes in the incubation (million cells) and the incubation time (minute). The relative fold induction in enzymatic activity was calculated by comparing the rate of metabolite formation for treatment groups to that of the solvent control group (reported as vehicle control%) or positive control group (reported as positive control%).

Data set [2] relates to CYP3A4/5. The experiment in a line: CYP inhibition in pooled human liver microsomes: CYP3A4/5. As to the method: (§1) The final concentration of each probe substrate was near the experimentally determined Km value for the indicated enzyme. Ataluren or prototypical CYP inhibitors (positive controls) was incubated (n = 3) with probe substrates and HLM in 100 mmol/L phosphate buffer (pH 7.4) in a total volume of approximately 0.25 mL, and the reactions were initiated by the addition of 1 mmol/L NADPH at 37°C. The reactions were carried out using previously established conditions to ensure linearity with respect to protein concentration and incubation time (Table S1). Incubations were stopped with the addition of ice‐cold acetonitrile. Metabolite formation in incubations with test compound and control inhibitors was assessed with LC‐MS/MS methods for each of the reaction products as described in Table S2. […] After 7 minutes incubation at 37°C, the reaction was stopped by the addition of ice‐cold acetonitrile, followed by membrane plate filtration. The filtrates were used for LC‐MS/MS analysis. Enzyme activity remaining at each nonzero ataluren concentration after incubation was normalized against control sample (zero ataluren concentration, enzyme activity = 100%), and the % remaining enzyme activity values were used for IC50 calculation. IC50 values were determined by nonlinear regression with GraphPad Prism 5 using the following four‐parameter sigmoidal‐logistic IC50 equation: Fit=background+range-background/[1+I/IC50^slope]
(§2) Where, I is the inhibitor concentration, and background was set to 0 and range to 100, as percent of control values are utilized. K i was determined by nonlinear regression with GraphPad Prism 5 using best fit model.

Data set [3] concerns the target T1, CYP2C8 (Homo sapiens, UniProt P10632).
T1 construct: tissue XenoTech LLC, Celsis-In Vitro Technologies, or Tissue Transformation Technologies; host or cells: pooled human liver microsomes
T1 sequence (P10632 1-490): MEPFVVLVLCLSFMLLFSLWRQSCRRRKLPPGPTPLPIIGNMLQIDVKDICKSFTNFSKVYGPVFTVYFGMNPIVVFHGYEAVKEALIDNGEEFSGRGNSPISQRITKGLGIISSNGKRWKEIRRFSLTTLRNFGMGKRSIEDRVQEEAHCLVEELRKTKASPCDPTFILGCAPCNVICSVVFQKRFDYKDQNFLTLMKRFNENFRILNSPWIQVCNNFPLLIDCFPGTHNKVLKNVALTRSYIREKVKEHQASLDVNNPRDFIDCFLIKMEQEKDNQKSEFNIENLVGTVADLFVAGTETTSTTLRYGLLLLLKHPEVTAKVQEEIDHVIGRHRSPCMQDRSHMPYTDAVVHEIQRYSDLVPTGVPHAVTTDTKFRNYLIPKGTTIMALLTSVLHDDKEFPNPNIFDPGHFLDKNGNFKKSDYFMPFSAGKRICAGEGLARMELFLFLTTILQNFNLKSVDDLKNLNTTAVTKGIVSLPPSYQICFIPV
In words: CYP inhibition in pooled human liver microsomes: CYP2C8. The protocol:
as §1, §2
For orientation: Liver microsomes are vesicles of endoplasmic reticulum, rich in cytochrome P450 enzymes.

Consider `O=C(O)c1cccc(-c2noc(-c3ccccc3F)n2)c1` [ataluren, Ataluren], for which the “Positive control %, Mean” value in data set [1] (ataluren 4 µM) was determined as 2.81%; in data set [1] (ataluren 40 µM) it was 6.27%; in data set [1] (ataluren 400 µM) it was 19.8%. Besides, the “Vehicle control %, Mean” value is recorded as 111% in data set [1] (ataluren 4 µM), 123% in data set [1] (ataluren 40 µM) and 170% in data set [1] (ataluren 400 µM). For the same compound, the concentration for half-maximal inhibition (IC50) in data set [2] (pH 7.4, CYP3A4/5, HLM, estimated, concentrations up to 400 μmol/L, substrate not stated) was greater than 400 µM; in data set [2] (pH 7.4, probe midazolam (1′-hydroxylation), Midazolam 1′-hydroxylase, pooled HLM, n=3), greater than 400 µM; in data set [2] (pH 7.4, probe testosterone (6β-hydroxylation), Testosterone 6β-hydroxylase, pooled HLM, n=3), greater than 400 µM; in data set [3] (Amodiaquine N-deethylase, pooled HLM, n=3, (95% confidence interval)) it was 163 µM; in data set [3] (human, pooled human liver microsomes, pH 7.4, CYP2C8, HLM) it was 165 µM. Moreover, the mechanism of inhibition entry in data set [3] (CYP2C8, amodiaquine N-deethylase) is recorded as “noncompetitive inhibitor”. In data set [3] (CYP2C8, noncompetitive, mean ± SE, n = 3), this compound registered an inhibitory constant (Ki) of 169 ± 6.19 µM.
